Assays:
Format in all cases: in vivo
[1] = system: Scirpus juncoides; assay: Test Example 2: herbicidal activity, application during weed generation in submerged conditions (symbol B); conditions: Table 23; application herbicide amount 320 g/ha; grade 0-5 by criteria of Test Example 1
Procedure, shortened: (§1)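 Scoring of herbicidal effect took place 3 weeks after treatment, using the criteria of the earlier test. Treatment was water-surface application of diluted emulsifiable compound at a set dose. Plants were at one- to two-leaf stage in submerged alluvial soil (4 cm depth), greenhouse 25-30° C.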

[2] = system: Chenopodium album; assay: Test Example 5: herbicidal effect by foliage application, plastic box (symbol O); conditions: 320 g/ha, 3 weeks after application
Procedure, shortened: (§2)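 Effect is rated 3 weeks after a foliar spray of water-diluted emulsion concentrate at a predetermined herbicide amount. Plants had grown 14 days in a 25° C. to 30° C. greenhouse from seed in sterilized diluvial soil.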

[3] = system: Digitaria ciliaris; assay: Test Example 5: herbicidal effect by foliage application, plastic box (symbol F); conditions: 320 g/ha, 3 weeks after application
Procedure, shortened: as §2

[4] = system: Scirpus juncoides; assay: Test Example 1: herbicidal activity, application before weed generation in submerged conditions (symbol B); conditions: application herbicide amount 320 g/ha
Procedure, shortened: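 0–5 visual score, 3 wk post-application. Submerged pots, alluvial soil, water 4 cm; seeds sown mixed, rice at 2.5 leaves transplanted. Emulsion diluted to predetermined dose, applied to water surface at sowing. 25–30 °C greenhouse.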

[5] = system: beet; assay: Test Example 4: effect on crop by soil treatment (symbol f); conditions: for Effect on crop grade, f: beet: application herbicide amount 320 g/ha; for f: beet, effect grade on crop: 320 g/ha
Procedure, shortened: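 Greenhouse culture at 25° C. to 30° C. followed sowing of seed in spots on sterilized diluvial soil with a soil cover close to 1.5 cm thick.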

[6] = system: Echinochloa oryzacola Vasing.; assay: Test Example 2: herbicidal activity, application during weed generation in submerged conditions (symbol A); conditions: Table 23; application herbicide amount 320 g/ha; grade 0-5 by criteria of Test Example 1
Procedure, shortened: as §1

[7] = system: Avena fatua; assay: Test Example 4: herbicidal effect by soil treatment (symbol I); conditions: for Herbicidal effect grade, I: Avena fatua: application herbicide amount 320 g/ha; for I: Avena fatua, herbicidal effect grade: 320 g/ha
Procedure, shortened: (§3)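 Seeds were sown in sterilized diluvial soil, covered with about 1.5 cm of soil, and the soil surface was sprayed with a water-diluted emulsion of the compound at a predetermined rate. Plants grew in a greenhouse at 25° C. to 30° C.; effects were scored visually 3 weeks after application.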

[8] = system: Echinochloa crus-galli var. crus-galli; assay: Test Example 3: herbicidal effect by foliage application, Wagner pot (symbol H); conditions: application herbicide amount 320 g/ha; for H (Echinochloa crus-galli var. crus-galli) herbicidal effect grade: Table 24
Procedure, shortened: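 Foliar spray of a water-diluted emulsion at a predetermined herbicide amount, applied to 14-day-old plants. Seedlings were raised in flooded alluvial soil (0.1–0.5 cm water) at 25–30 °C in a greenhouse. Injury was rated after 3 weeks against fixed criteria.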

[9] = system: Chenopodium album; assay: Test Example 4: herbicidal effect by soil treatment (symbol O); conditions: for Herbicidal effect grade, O: Chenopodium album: application herbicide amount 320 g/ha; for O: Chenopodium album, herbicidal effect grade: 320 g/ha
Procedure, shortened: as §3

[10] = system: rapeseed; assay: Test Example 5: effect on crop by foliage application, plastic box (symbol g); conditions: 320 g/ha, 3 weeks after application
Procedure, shortened: (§4)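 Greenhouse test at 25° C. to 30° C. Seeds of crops and weeds were spot-sown in boxes of sterilized diluvial soil under roughly 1.5 cm soil cover, then grown for foliage treatment.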

[11] = system: rice plant; assay: Test Example 5: effect on crop by foliage application, plastic box (symbol b); conditions: 320 g/ha, 3 weeks after application
Procedure, shortened: as §4

[12] = system: Stellaria media; assay: Test Example 4: herbicidal effect by soil treatment (symbol P); conditions: for Herbicidal effect grade, P: Stellaria media: application herbicide amount 320 g/ha; for P: Stellaria media, herbicidal effect grade: 320 g/ha
Procedure, shortened: as §3

Structure (SMILES)	Herbicidal effect grade, B: Scirpus juncoides [1]	O: Chenopodium album, herbicidal effect grade [2]	F: Digitaria ciliaris, herbicidal effect grade [3]	B (Scirpus juncoides) herbicidal effect grade [4]	Effect on crop grade, f: beet [5]	Herbicidal effect grade, A: Echinochloa oryzacola Vasing. [6]	Herbicidal effect grade, I: Avena fatua [7]	H (Echinochloa crus-galli var. crus-galli) herbicidal effect grade [8]	Herbicidal effect grade, O: Chenopodium album [9]	g: rapeseed, effect on crop grade [10]	O: Chenopodium album, herbicidal effect (criteria 0-5) [2]	F: Digitaria ciliaris, herbicidal effect (criteria 0-5) [3]	Herbicidal effect grade, B: Scirpus juncoides [4]	f: beet, effect grade on crop [5]	I: Avena fatua, herbicidal effect grade [7]	herbicidal effect on H (Echinochloa crus-galli var. crus-galli), grade 0-5 [8]	O: Chenopodium album, herbicidal effect grade [9]	g: rapeseed, effect on crop (criteria 0-5) [10]	b: directly sowed rice plant, effect on crop (criteria 0-5) [11]	P: Stellaria media, herbicidal effect grade [12]	also measured
COCCON=C(CC1CC(O)=C(c2c(C)cc(-n3cc(Cl)cn3)cc2C)C1=O)C(C)C (stereo not drawn) [9-022]	0 (Herbicidal ratio of 5% or lower (almost no effect))	0 (Herbicidal ratio of 5% or lower (almost no effect))	5 (Herbicidal ratio of 90% or more (almost completely withered))	3 (Herbicidal ratio of 40% or higher and lower than 70%)	0 (Herbicidal ratio of 5% or lower (almost no effect))	4 (Herbicidal ratio of 70% or higher and lower than 90%)	0 (Herbicidal ratio of 5% or lower (almost no effect))	5 (Herbicidal ratio of 90% or more (almost completely withered))	0 (Herbicidal ratio of 5% or lower (almost no effect))	0 (Herbicidal ratio of 5% or lower (almost no effect))											b: directly sowed rice plant, effect on crop grade [11]: 5 (Herbicidal ratio of 90% or more (almost completely withered)); Herbicidal effect grade, P: Stellaria media [12]: 0 (Herbicidal ratio of 5% or lower (almost no effect))
CC(CC1CC(OC(=O)COc2ccccc2)=C(c2c(C)cc(-c3ccc(Cl)cc3)cc2C)C1=O)=NOCC(F)(F)F (mixture of isomers) [9-027]	0 (Herbicidal ratio of 5% or lower (almost no effect))	2 (Herbicidal ratio of 20% or higher and lower than 40%)	5 (Herbicidal ratio of 90% or more (almost completely withered))	2 (Herbicidal ratio of 20% or higher and lower than 40%)	0 (Herbicidal ratio of 5% or lower (almost no effect))	3 (Herbicidal ratio of 40% or higher and lower than 70%)	4 (Herbicidal ratio of 70% or higher and lower than 90%)	5 (Herbicidal ratio of 90% or more (almost completely withered))	3 (Herbicidal ratio of 40% or higher and lower than 70%)	4 (Herbicidal ratio of 70% or higher and lower than 90%)											b: directly sowed rice plant, effect on crop grade [11]: 5 (Herbicidal ratio of 90% or more (almost completely withered)); Herbicidal effect grade, P: Stellaria media [12]: 3 (Herbicidal ratio of 40% or higher and lower than 70%)
CC(CC1CC(O)=C(c2c(C)cc(C)cc2C)C1=O)=NOCC1OCCO1 (stereo not drawn) [1-111]	1 (Herbicidal ratio of 5% or higher and lower than 20%)					5 (Herbicidal ratio of 90% or more (almost completely withered))					1 (Herbicidal ratio of 5% or higher and lower than 20%)	5 (Herbicidal ratio of 90% or more (almost completely withered))	2 (Herbicidal ratio of 20% or higher and lower than 40%)	0 (Herbicidal ratio of 5% or lower (almost no effect))	3 (Herbicidal ratio of 40% or higher and lower than 70%)	5 (Herbicidal ratio of 90% or more (almost completely withered))	0 (Herbicidal ratio of 5% or lower (almost no effect))	5 (Herbicidal ratio of 90% or more (almost completely withered))	5 (Herbicidal ratio of 90% or more (almost completely withered))	0 (Herbicidal ratio of 5% or lower (almost no effect))	
COc1ccc(CON=C(C)CC2CC(O)=C(c3c(C)cc(C)cc3C)C2=O)cc1 (stereo not drawn) [1-112]	4 (Herbicidal ratio of 70% or higher and lower than 90%)					4 (Herbicidal ratio of 70% or higher and lower than 90%)					3 (Herbicidal ratio of 40% or higher and lower than 70%)	5 (Herbicidal ratio of 90% or more (almost completely withered))	5 (Herbicidal ratio of 90% or more (almost completely withered))	0 (Herbicidal ratio of 5% or lower (almost no effect))	3 (Herbicidal ratio of 40% or higher and lower than 70%)	5 (Herbicidal ratio of 90% or more (almost completely withered))	0 (Herbicidal ratio of 5% or lower (almost no effect))	4 (Herbicidal ratio of 70% or higher and lower than 90%)	5 (Herbicidal ratio of 90% or more (almost completely withered))	0 (Herbicidal ratio of 5% or lower (almost no effect))	
CC(CC1CC(O)=C(c2c(C)cc(C)cc2C)C1=O)=NOCc1cccc(Cl)c1 (stereo not drawn) [1-114]	3 (Herbicidal ratio of 40% or higher and lower than 70%)					4 (Herbicidal ratio of 70% or higher and lower than 90%)					3 (Herbicidal ratio of 40% or higher and lower than 70%)	5 (Herbicidal ratio of 90% or more (almost completely withered))	5 (Herbicidal ratio of 90% or more (almost completely withered))	0 (Herbicidal ratio of 5% or lower (almost no effect))	3 (Herbicidal ratio of 40% or higher and lower than 70%)	5 (Herbicidal ratio of 90% or more (almost completely withered))	0 (Herbicidal ratio of 5% or lower (almost no effect))	4 (Herbicidal ratio of 70% or higher and lower than 90%)	5 (Herbicidal ratio of 90% or more (almost completely withered))	0 (Herbicidal ratio of 5% or lower (almost no effect))	
CC(CC1CC(O)=C(c2c(C)cc(C)cc2C)C1=O)=NOCC1CC1(F)F (stereo not drawn) [1-109]	5 (Herbicidal ratio of 90% or more (almost completely withered))					5 (Herbicidal ratio of 90% or more (almost completely withered))					3 (Herbicidal ratio of 40% or higher and lower than 70%)	5 (Herbicidal ratio of 90% or more (almost completely withered))	5 (Herbicidal ratio of 90% or more (almost completely withered))	0 (Herbicidal ratio of 5% or lower (almost no effect))	2 (Herbicidal ratio of 20% or higher and lower than 40%)	5 (Herbicidal ratio of 90% or more (almost completely withered))	0 (Herbicidal ratio of 5% or lower (almost no effect))	4 (Herbicidal ratio of 70% or higher and lower than 90%)	5 (Herbicidal ratio of 90% or more (almost completely withered))	0 (Herbicidal ratio of 5% or lower (almost no effect))	
